# In patent US6537986B2, “Oxazolidinone antibacterial agents having a thiocarbonyl funtionality” (Pharmacia & Upjohn Company, priority 1997, dated 2003):
# Read-outs that look alike come from different tables or passages of the source.
# Columns and labels:
# [1] = test system: Haemophilus influenzae (HINF 30063); assay: MIC, standard agar dilution method; format: cell-based; conditions: Haemophilus influenzae, Table II, Mueller Hinton agar, incubated overnight at 35° C.
# Method: (§1) MIC Test Method The in vitro MICs of test compounds were determined by a standard agar dilution method. […] Serial 2-fold dilutions of each sample are made using 1.0 ml aliquots of sterile distilled water. To each 1.0 ml aliquot of drug is added 9 ml of molten Mueller Hinton agar medium. The drug-supplemented agar is mixed, poured into 15×100 mm petri dishes, and allowed to solidify and dry prior to inoculation. Vials of each of the test organisms are maintained frozen in the vapor phase of a liquid nitrogen freezer. Test cultures are grown overnight at 35° C. on the medium appropriate for the organism. Colonies are harvested with a sterile swab, and cell suspensions are prepared in Trypticase Soy broth (TSB) to equal the turbidity of a 0.5 McFarland standard. A 1:20 dilution of each suspension is made in TSB. […] The plates are incubated overnight at 35° C. Following incubation the Minimum Inhibitory Concentration (MIC μg/ml), the lowest concentration of drug that inhibits visible growth of the organism, is read and recorded.
# [2] = test system: Enterococcus faecalis (EFAE 9217); assay: MIC, standard agar dilution method; format: cell-based; conditions: incubated overnight at 35° C.
# Method: as §1
# S. aureus (SAUR 9213) = assay: MIC, standard agar dilution method; format: cell-based; conditions: Staphylococcus aureus, incubated overnight at 35° C.
# Method: as §1
# [3] = test system: S. epidermidis (SEPI 30593); assay: MIC, standard agar dilution method; format: cell-based; conditions: Staphylococcus epidermidis, Table II, Mueller Hinton agar, incubated overnight at 35° C.
# Method: as §1
# S. pyogenes (SPYO 152) = assay: MIC, standard agar dilution method; format: cell-based; conditions: Streptococcus pyogenes, incubated overnight at 35° C.
# Method: as §1
# [4] = test system: S. pneumoniae (SPNE 9912); assay: MIC, standard agar dilution method; format: cell-based; conditions: Streptococcus pneumoniae, incubated overnight at 35° C.
# Method: as §1
# [5] = test system: Moraxella catarrhalis (MCAT 30610); assay: MIC, standard agar dilution method; format: cell-based; conditions: Moraxella catarrhalis, Table II, Mueller Hinton agar, incubated overnight at 35° C.
# Method: as §1
# E. Faecium (EFAE 12712) = assay: MIC, standard agar dilution method; format: cell-based; conditions: Enterococcus faecium; Table II; key: E. Faecium; agar dilution, Mueller Hinton agar, incubated overnight at 35° C.; read-out: EFAE 12712 MIC
# Method: as §1
# [6] = test system: S. epidermidis (SEPI 12084); assay: MIC, standard agar dilution method; format: cell-based; conditions: Staphylococcus epidermidis, Table 1, Mueller Hinton agar, incubated overnight at 35° C., read-out: Oxazolidinone MIC Values (Gram+) SEPI 12084
# Method: MIC Test Method The in vitro MICs of test compounds were determined by a standard agar dilution method. A stock drug solution of each analog is prepared in the preferred solvent, usually DMSO:H2O (1:3). Serial 2-fold dilutions of each sample are made using 1.0 ml aliquots of sterile distilled water. To each 1.0 ml aliquot of drug is added 9 ml of molten Mueller Hinton agar medium. The drug-supplemented agar is mixed, poured into 15×100 mm petri dishes, and allowed to solidify and dry prior to inoculation. Vials of each of the test organisms are maintained frozen in the vapor phase of a liquid nitrogen freezer. Test cultures are grown overnight at 35° C. on the medium appropriate for the organism. Colonies are harvested with a sterile swab, and cell suspensions are prepared in Trypticase Soy broth (TSB) to equal the turbidity of a 0.5 McFarland standard. A 1:20 dilution of each suspension is made in TSB. […] The plates are incubated overnight at 35° C. Following incubation the Minimum Inhibitory Concentration (MIC μg/ml), the lowest concentration of drug that inhibits visible growth of the organism, is read and recorded.
# [7] = Enterococcus faecalis, Table 1, Mueller Hinton agar, read-out: Oxazolidinone MIC Values (Gram+) EFAE 9217
# [8] = Table II, key: Enterococcus faecalis, Mueller Hinton agar, read-out: EFAE 9217 MIC
# [9] = Table 1, Mueller Hinton agar, read-out: Oxazolidinone MIC Values (Gram+) SAUR 9213
# [10] = Table II, Mueller Hinton agar, read-out: SAUR 9213 MIC
# [11] = Table 1, Mueller Hinton agar, read-out: Oxazolidinone MIC Values (Gram+) SPYO 152
# [12] = Table II, Mueller Hinton agar, read-out: SPYO 152 MIC
# [13] = Table 1, Mueller Hinton agar, read-out: Oxazolidinone MIC Values (Gram+) SPNE 9912
# [14] = Table II, Mueller Hinton agar, read-out: SPNE 9912 MIC
Structure (SMILES),MIC [1],"MIC [2, 7]","MIC [2, 8]",MIC (S. aureus (SAUR 9213); [9]),MIC (S. aureus (SAUR 9213); [10]),MIC [3],MIC (S. pyogenes (SPYO 152); [11]),MIC (S. pyogenes (SPYO 152); [12]),"MIC [4, 13]","MIC [4, 14]",MIC [5],MIC (E. Faecium (EFAE 12712)),MIC [6],melting point
"CC(=S)NC[C@H]1CN(c2ccc(N3CCN(c4nnc(C)s4)CC3)c(F)c2)C(=O)O1 [Example 2, (S)-N-[[3-[3-Fluoro-4-[4-(5-methyl-1,3,4-thiadiazol-2-yl)-1-piperazinyl]phenyl]-2-oxo-5-oxazolidinyl]methyl]thioacetamide]",> 16 µg/mL,4 µg/mL,4 µg/mL,8 µg/mL,8 µg/mL,4 µg/mL,4 µg/mL,4 µg/mL,2 µg/mL,2 µg/mL,> 16 µg/mL,8 µg/mL,2 µg/mL,222 to 223 °C
"CC(=S)NC[C@H]1CN(c2ccc(N3CCC4(CC3)NC(=O)NC4=O)c(F)c2)C(=O)O1 [Example 3, (S)-N-[[3-[3-Fluoro-4-[2′,5′-dioxospiro[piperidine-4,4′-imidazolidine]-1-yl]phenyl]-2-oxo-5-oxazolidinyl]methyl]thioacetamide]",16 µg/mL,2 µg/mL,2 µg/mL,4 µg/mL,4 µg/mL,1 µg/mL,0.5 µg/mL,0.5 µg/mL,0.25 µg/mL,0.25 µg/mL,4 µg/mL,1 µg/mL,1 µg/mL,
"CC(=S)NC[C@H]1CN(c2ccc(N3CCN(C(=O)CO)CC3)c(F)c2)C(=O)O1 [Example 25, (S)-N-[[3-[3-Fluoro-4-[4-(hydroxyacetyl)-1-piperazinyl]phenyl]-2-oxo-5-oxazolidinyl]methyl]thioacetamide]",2 µg/mL,,0.5 µg/mL,,0.5 µg/mL,0.25 µg/mL,,< 0.125 µg/mL,,< 0.125 µg/mL,2 µg/mL,0.5 µg/mL,,163 to 165 °C
"CC(=S)NC[C@H]1CN(c2ccc(N3CCSCC3)c(F)c2)C(=O)O1 [Example 26, (S)-N-[[3-[3-Fluoro-4-(4-thiomorpholinyl)phenyl]-2-oxo-5-oxazolidinyl]methyl]thio-acetamide]",16 µg/mL,,1 µg/mL,,1 µg/mL,0.5 µg/mL,,0.5 µg/mL,,0.25 µg/mL,2 µg/mL,1 µg/mL,,155 to 156 °C

# Now from value to compound:
MIC [1],"MIC [2, 7]","MIC [2, 8]",MIC (S. aureus (SAUR 9213); [9]),MIC (S. aureus (SAUR 9213); [10]),MIC [3],MIC (S. pyogenes (SPYO 152); [11]),MIC (S. pyogenes (SPYO 152); [12]),"MIC [4, 13]","MIC [4, 14]",MIC [5],MIC (E. Faecium (EFAE 12712)),MIC [6],melting point,Structure (SMILES)
8 µg/mL,0.5 µg/mL,0.5 µg/mL,1 µg/mL,1 µg/mL,0.25 µg/mL,0.13 µg/mL,< 0.125 µg/mL,0.13 µg/mL,< 0.125 µg/mL,1 µg/mL,0.5 µg/mL,0.25 µg/mL,157.5 to 158.5 °C,"CC(=S)NC[C@H]1CN(c2ccc(N3CCOCC3)c(F)c2)C(=O)O1 [Example 1, (S)-N-[[3-[3-Fluoro-4-(4-morpholinyl)phenyl]-2-oxo-5-oxazolidinyl]methyl]thioacetamide]"
4 µg/mL,,0.5 µg/mL,,1 µg/mL,0.25 µg/mL,,0.25 µg/mL,,< 0.125 µg/mL,2 µg/mL,0.5 µg/mL,,175 to 176 °C (dec.),"CC(=S)NC[C@H]1CN(c2ccc3c(c2)CCN3C(=O)CO)C(=O)O1 [Example 24, (S)-N-[[3-[1-(Hydroxyacetyl)-5-indolinyl]-2-oxo-5-oxazolidinyl]methyl]thioacetamide]"
4 µg/mL,,1 µg/mL,,0.5 µg/mL,0.5 µg/mL,,0.25 µg/mL,,< 0.125 µg/mL,2 µg/mL,0.5 µg/mL,,176 to 177 °C,"CC(=S)NC[C@H]1CN(c2ccc(N3CC[S+]([O-])CC3)c(F)c2)C(=O)O1 [Example 27, (S)-N-[[3-[3-Fluoro-4-(4-thiomorpholinyl)phenyl]-2-oxo-5-oxazolidinyl]methyl]thio-acetamide, thiomorpholine S-oxide]"
